Source: patent US7427670B2, “Cytochrome P450 24 (CYP24) monoclonal antibody and methods and uses thereof” (Cytochroma Inc., priority 2003, dated 2008)

System: CYP24 protein in HEK cells
Assay: CYP24 protein expression in HEK cells, Western blot with anti-CYP24 mAb and densitometric analysis
Format: cell-based, human
Conditions: 10 nM
Description: • Human Epidermal Keratinocyte Cells (HEK) cells (CYP24 expressing cells) • Keratinocyte Growth Medium (KGM®; Cambrex) • HEK Cell Lysis Buffer (0.5 M Tris, pH 6.8, 10% SDS, glycerol, dH2O, protease inhibitor) • 1.7 ml eppendorf tubes • Isopropanol • Enhanced Chemiluminescense (ECL) Western Blotting Detection Reagants (Amersham Pharmacia) • 10 nM Calcitriol (Vitamin D) • 10 nM CTAX (Cytochroma Inc.) (“Vitamin D analog”) • 10 nM CTAY (Cytochroma Inc.) (“Vitamin D analog”) • 10 nM CTAZ (Cytochroma Inc.) (“Vitamin D analog”) • 6-well plates (i) HEK Cell Preparation Method:
125 thousand HEK cells per well were placed in 2.5 ml KGM® (2 plates) and incubated overnight @ 37° C. in 5% CO2. After 24 hours, old KGM® was replaced with fresh 2.5 ml KGM®. For 48 hour samples (Plate 1): 2.5 μl isopropanol was added to 1 well; 2.5 μl 10 μM calcitriol was added to 1 well; 2.5 μl 10 μM CTAX was added to 1 well; 2.5 μl 10 μM CTAY was added to 1 well; 2.5 μl […] was added to 1 well. […]
The effect of CYP24 protein expression in HEK cells treated with CYP24 inhibitors was investigated. […] Cell lysates were then analyzed for CYP24 protein by Western blot analysis using anti-CYP24 mAb as the primary antibody. Each sample was expressed as a relative amount of CYP24 protein compared to the control (control=1 unit).

SMILES: C=C1/C(=C\C=C2/CCC[C@]3(C)[C@@H]([C@H](C)CCCC(C)(C)O)CC[C@@H]23)C[C@@H](O)C[C@@H]1O [Calcitriol]
- induction of CYP24 protein (relative to control = 1 unit) (24 hours): weakly induces
- induction of CYP24 protein (relative to control = 1 unit) (48 hours): weakly induces
